# Experimental data reported in US20250213701A1, “MEDICAMENT FOR TREATING HUMAN TUMOR BASED ON ERF3A-TARGETING PROTEOLYSIS MECHANISM” (SUZHOU DEGEN BIO-MEDICAL CO., LTD., priority 2022, published 2025).
# Key:
# Format in all cases: cell-based
# [1] = system: Hep G2 cells; experiment: Anti-proliferative toxicity of C63 in tumor cell lines (CCK8): Hep G2; settings: Homo sapiens, HepG2, 72 h, 3 days, read-out: Inhibition rate
# Method: (§1) Example 83: Detection of Anti-Proliferative Toxicity of C63 in Some Tumor Cell Lines
# HepG2 cells (purchased from the Cell Bank of the Chinese Academy of Sciences, Cat. No. TCHu72) were subcultured in a culture medium (MEM medium+1% penicillin-streptomycin dual-antibiotic solution+10% fetal bovine serum) in an incubator at 5% carbon dioxide and 37° C.
# Hep G2 cells were seeded at 2000 cells/well (90 μL) on a 96-well plate and cultured for 24 h.
# (§2) 10 mM compound stock solutions were prepared in DMSO.
# (§3) The compound stock solution was diluted with DMSO to give DMSO solutions 1-9 at concentrations of 0 μM, 2500 μM, 500 μM, 100 μM, 20 μM, 4 μM, 0.8 μM, 0.16 μM, and 0.032 μM.
# (§4) 2 μL of each of solutions 1-9 was added to 98 μL of the medium to give mixed solutions 11-19 of the compound and the medium.
# (§5) 10 μL of each of solutions 11-19 was added to the above cell seed solution to give a total volume of 100 μL (90 μL+10 μL).
# (§6) The concentrations of the compound in the wells were 0 μM, 5.0 μM, 1.0 μM, 0.2 μM, 0.04 μM, 0.008 μM, 0.0016 μM, 0.00032 μM, and 0.000064 μM. All concentrations were in triplicate.
# (§7) After the above-treated cells were cultured for 3 days, 10 μL of the CCK8 solution (DOJINDO, Cat. No. PF725) was added to each well. The plate was incubated in an incubator at 37° C. for 1-4 h and then detected on a microplate reader for the reading at 450 nm.
# [2] = system: Ca Ski cells; experiment: Anti-proliferative toxicity of C63 in tumor cell lines (CCK8): Ca Ski; settings: Homo sapiens, 72 h, 3 days, read-out: Inhibition rate
# Method: as §1
# Ca Ski cells (purchased from the Cell Bank of the Chinese Academy of Sciences, Cat. No. TCHu137) were subcultured in a culture medium (RPMI-1640 medium+1% penicillin-streptomycin dual-antibiotic solution+10% fetal bovine serum) in an incubator at 5% carbon dioxide and 37° C.
# Ca Ski cells were seeded at 5000 cells/well (90 μL) on a 96-well plate and cultured for 24 h.
# as §2, §3, §4, §5, §6, §7
# [3] = system: MDA-MB-468 cells; experiment: Anti-proliferative toxicity of C63 in tumor cell lines (CCK8): MDA-MB-468; settings: Homo sapiens, 72 h, 3 days, read-out: Inhibition rate
# Method: as §1
# MDA-MB-468 cells (purchased from the Cell Bank of the Chinese Academy of Sciences, Cat. No. TCHu136) were subcultured in a culture medium (L15 medium+1% penicillin-streptomycin dual-antibiotic solution+10% fetal bovine serum) in an incubator at 37° C.
# MDA-MB-468 cells were seeded at 5000 cells/well (90 μL) on a 96-well plate and cultured for 24 h.
# as §2, §3, §4, §5, §6, §7
# [4] = system: BxPC-3 cells; experiment: Anti-proliferative toxicity of C63 in tumor cell lines (CCK8): BxPC-3; settings: Homo sapiens, 72 h, 3 days, read-out: Inhibition rate
# Method: as §1
# BxPC-3 cells (purchased from the Cell Bank of the Chinese Academy of Sciences, Cat. No. TCHu12) were subcultured in a culture medium (RPMI-1640 medium+1% penicillin-streptomycin dual-antibiotic solution+10% fetal bovine serum) in an incubator at 5% carbon dioxide and 37° C.
# BxPC-3 cells were seeded at 3000 cells/well (90 μL) on a 96-well plate and cultured for 24 h.
# as §2, §3, §4, §5, §6, §7
# [5] = system: HL-60 cells; experiment: Anti-proliferative toxicity of C63 in tumor cell lines (CCK8): HL-60; settings: Homo sapiens, 72 h, 3 days, read-out: Inhibition rate
# Method: as §1
# HL-60 cells (purchased from the Cell Bank of the Chinese Academy of Sciences, Cat. No. TCHu23) were subcultured in a culture medium (IMDM medium+1% penicillin-streptomycin dual-antibiotic solution+20% fetal bovine serum) in an incubator at 5% carbon dioxide and 37° C.
# HL-60 cells were seeded at 20000 cells/well (90 μL) on a 96-well plate and cultured for 24 h.
# as §2, §3, §4, §5, §6, §7
# [6] = system: DU 145 cells; experiment: Anti-proliferative toxicity of C63 in tumor cell lines (CCK8): DU 145; settings: Homo sapiens, 72 h, 3 days, read-out: Inhibition rate
# Method: as §1
# DU 145 cells (purchased from the Cell Bank of the Chinese Academy of Sciences, Cat. No. SCSP-5024) were subcultured in a culture medium (MVEM medium+[…] penicillin-streptomycin dual-antibiotic solution+10% fetal bovine serum) in an incubator at 5% carbon dioxide and 37° C.
# DU 145 cells were seeded at 5000 cells/well (90 μL) on a 96-well plate and cultured for 24 h.
# as §2, §3, §4, §5, §6, §7
structure (smiles),measurement,setting,value
"C[C@]12C=CC(=O)N[C@@H]1CC[C@@H]1[C@@H]2CC[C@]2(C)[C@@H](C(=O)Nc3cccc(N[C@@H]4CCC[C@@H](Nc5cccc6c5C(=O)N([C@H]5CCC(=O)NC5=O)C6=O)C4)c3)CC[C@@H]12 [C63, N-(3-(N—(N-(4-(2-(3S-(2,6-dioxopiperidine))-isoindole-1,3-dione))-1R,3R-cyclohexanediamine))phenyl)-3-oxo-4-aza-5α-androst-1-ene-17β-carboxamide]",inhibition at 64 pM,[1]; 0.000064 μM,1.97%
same,inhibition at 0.00032 µM,[1]; 0.000320 μM,14.1%
same,inhibition at 0.0016 µM,[1]; 0.001600 μM,66.9%
same,inhibition at 0.008 µM,[1]; 0.008000 μM,79.3%
same,inhibition at 0.04 µM,[1]; 0.040000 μM,87.1%
same,inhibition at 0.2 µM,[1]; 0.200000 μM,87.3%
same,inhibition at 1 µM,[1]; 1.000000 μM,85.7%
same,inhibition at 5 µM,[1]; 5.000000 μM,81.1%
same,inhibition at 64 pM,[2]; 0.000064 μM,2.03%
same,inhibition at 0.00032 µM,[2]; 0.000320 μM,6.27%
same,inhibition at 0.0016 µM,[2]; 0.001600 μM,42.9%
same,inhibition at 0.008 µM,[2]; 0.008000 μM,65.4%
same,inhibition at 0.04 µM,[2]; 0.040000 μM,73.9%
same,inhibition at 0.2 µM,[2]; 0.200000 μM,78%
same,inhibition at 1 µM,[2]; 1.000000 μM,77.8%
same,inhibition at 5 µM,[2]; 5.000000 μM,78.1%
same,inhibition at 64 pM,[3]; 0.000064 μM,4.42%
same,inhibition at 0.00032 µM,[3]; 0.000320 μM,30.5%
same,inhibition at 0.0016 µM,[3]; 0.001600 μM,55.1%
same,inhibition at 0.008 µM,[3]; 0.008000 μM,64.6%
same,inhibition at 0.04 µM,[3]; 0.040000 μM,65%
same,inhibition at 0.2 µM,[3]; 0.200000 μM,65.5%
same,inhibition at 1 µM,[3]; 1.000000 μM,70.2%
same,inhibition at 5 µM,[3]; 5.000000 μM,74%
same,inhibition at 64 pM,[4]; 0.000064 μM,3.64%
same,inhibition at 0.00032 µM,[4]; 0.000320 μM,22.6%
same,inhibition at 0.0016 µM,[4]; 0.001600 μM,56.5%
same,inhibition at 0.008 µM,[4]; 0.008000 μM,68.2%
same,inhibition at 0.04 µM,[4]; 0.040000 μM,71.6%
same,inhibition at 0.2 µM,[4]; 0.200000 μM,72.9%
same,inhibition at 1 µM,[4]; 1.000000 μM,76.5%
same,inhibition at 5 µM,[4]; 5.000000 μM,80.2%
same,inhibition at 64 pM,[5]; 0.000064 μM,73.5%
same,inhibition at 0.00032 µM,[5]; 0.000320 μM,80.2%
same,inhibition at 0.0016 µM,[5]; 0.001600 μM,89.5%
same,inhibition at 0.008 µM,[5]; 0.008000 μM,90.7%
same,inhibition at 0.04 µM,[5]; 0.040000 μM,92.4%
same,inhibition at 0.2 µM,[5]; 0.200000 μM,94.3%
same,inhibition at 1 µM,[5]; 1.000000 μM,91.6%
same,inhibition at 5 µM,[5]; 5.000000 μM,87.5%
same,inhibition at 64 pM,[6]; 0.000064 μM,22.1%
same,inhibition at 0.00032 µM,[6]; 0.000320 μM,20.5%
same,inhibition at 0.0016 µM,[6]; 0.001600 μM,22.7%
same,inhibition at 0.008 µM,[6]; 0.008000 μM,48.4%
same,inhibition at 0.04 µM,[6]; 0.040000 μM,60.9%
same,inhibition at 0.2 µM,[6]; 0.200000 μM,74.3%
same,inhibition at 1 µM,[6]; 1.000000 μM,81.9%
same,inhibition at 5 µM,[6]; 5.000000 μM,82.4%
